Where “and” joins values, the source holds several entries; their conditions need not be identical. Identical values can stand only once.
Tested on: MDA-MB-231 complex spheroids, growth inhibition
Assay: Anticancer human tumor MDA-MB-231 cell line growth inhibition [Asc];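 note: spheroids exposed to compounds for 7 days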
Conditions: for viability, T/C: stronger effect = lower value; active = viability on the fitted dose curve at most 10% of control; inactive = the rest
Procedure: Multicellular complex tumor spheroid response to apoptosis pathway targeting inhibitors Alrizomadlin, Pelcitoclax, and Dasminapant in combination with a variety of drugs and investigational agents in selected tumor cell lines
The MDM2 inhibitor alrizomadlin, the Bcl-2/Bcl-xL inhibitor pelcitoclax, and the IAPs inhibitor dasminapant were evaluated both individually and in combination with standard of care and investigational anticancer small molecules within a complex spheroid model of solid tumors. . Complex spheroids include a stromal component modeled by human endothelial cells (HUVEC) and fibroblasts modeled by human mesenchymal stem cells (MSCs). The concentration ranges selected for each drug and investigational agent were based upon clinically achievable concentrations if the clinical Cmax of the agent was known.
Compounds. The drugs and investigational agents: alrizomadlin (APG-115; NSC831270), pelcitoclax (APG-1252; NSC835773), dasminapant (APG-1387;NSC834197), TAK-243 (NSC785004), copanlisib (NSC809693), olaparib (NSC753686), talazoparib (NSC767125), cobimetinib (NSC 768068), eltanexor (KPT-8602, NSC 794443), abemaciclib (NSC 768073), sotorasib (NSC818433), adagrasib (NSC 831453), MRTX-1133 (NSC 836407), Iadademestat (ORY1001, NSC 806812), and RMC-4630 (NSC839698), were obtained from the NCI Developmental Therapeutics Program Chemical Repository. The FDA-approved anticancer drug set is available from the Developmental Therapeutics Program at https://dtp.cancer.gov/organization/dscb/obtaining/available plates.htm. […] The stock solutions were prepared in dimethyl sulfoxide (DMSO, Sigma-Aldrich, St. Louis, MO, cat. D2650) at 800-fold the tested concentration and stored at -70 degrees C prior to their use. All drugs and investigational agents were tested over a range starting from a high concentration at or near the clinical Cmax and decreasing in half-log increments. If the clinical Cmax for an agent had not been determined, the highest concentration tested was 10 microM.
The patient-derived cancer (PDC) cell lines include five colon adenocarcinomas: 186277-243-T-J2-PDC, 616215-338-R-J1-PDC, 439559-082-T-J2-PDC, 463943-066-T-J2-PDC, and 519858-162-T-J1-PDC; three pancreatic carcinomas: 323965-272-R-J2-PDC, 521955-158-R6-J3-PDC, and 521955-158-R2-J5-PDC; two uterine sarcomas: 327498-152-R-J2-PDC and 993429-296-R-J1-PDC; two rhabdomyosarcomas: 755483-174-R-J1-PDC and 772245-204-R-J1-PDC; two soft tissue sarcomas: 126254-015-R-J1-PDC and 494315-158-R-J1-PDC; two malignant fibrous histiocytomas: 317291-083-R-J1-PDC and 596521-263-R-J1-PDC; two breast carcinomas: 171881-019-R-J1-PDC and 885512-296-R-J2-PDC; and one ovarian carcinoma: 6556581-035-R-J-PDC were obtained from the NCI PDMR, (https://pdmr.cancer.gov). The established cell lines HSSY-2 synovial sarcoma (RRID:CVCL 8719), SYO-1 synovial sarcoma (RRID:CVCL_7146), MPNST malignant peripheral neural sheath tumor were obtained from the Sloan Kettering Institute. The following established cell lines were purchased from the American Type Culture Collection (ATCC, Manassas, VA), Sor the received from the NCI repository:, PANC-1 pancreatic carcinoma (CRL-1469, RRID:CVCL_0480), OVCAR-5 ovarian carcinoma (RRID:CVCL_1628), OVCAR-8 ovarian carcinoma (RRID:CVCL_1629), , MCF-7 breast carcinoma (CRL-12584, RRID:CVCL_0031), MDA-MB-231 breast carcinoma (CRL-12532, RRID:CVCL_0062), NCI-H1876 small cell lung carcinoma (CRL-5902, RRID:CVCL_1503), NCI-H510A small cell lung carcinoma (HTB-184, RRID:CVCL_1565), NCI-H1417 (CRL-5869, RRID:CVCL_1469), and NCI-H196 small cell lung carcinoma (CRL-5823, RRID:CVCL_1509). Dr. Peter Houghton (Greehey Children's Cancer Research Institute, University of Texas Health Science Center, San Antonio, TX) provided Rh-18 rhabdomyosarcoma (RRID:CVCL_1659). Pooled donor human umbilical vein endothelial cells (HUVEC, Lonza, cat. CC-2519) and human mesenchymal stem cells (hMSC, Lonza, cat. PT-2501) were purchased from Lonza (Walkersville, MD).
Cell Culture. […]

[1] = curve of first compound, second compound 0.1 µM
[2] = curve of first compound, second compound 0.316 µM
[3] = curve of first compound, second compound 1 µM
[4] = second compound 0.1 µM, first compound 0.0316 µM
[5] = second compound 0.1 µM, first compound 0.1 µM
[6] = second compound 0.316 µM, first compound 0.0316 µM
[7] = second compound 0.316 µM, first compound 0.1 µM
[8] = second compound 1 µM, first compound 0.0316 µM
[9] = second compound 1 µM, first compound 0.1 µM

O=C(c1cc(Cc2n[nH]c(=O)c3ccccc23)ccc1F)N1CCN(C(=O)C2CC2)CC1 + CNC(C)C(=O)NC1CN(S(=O)(=O)c2cccc(S(=O)(=O)N3CCC4CCC(C(=O)NC(c5ccccc5)c5ccccc5)N4C(=O)C(NC(=O)C(C)NC)C3)c2)CCC2CCC(C(=O)NC(c3ccccc3)c3ccccc3)N2C1=O
active: viability, T/C (second compound 0.01 µM, first compound 0.0316 µM) 2.12% | viability, T/C (second compound 0.01 µM, first compound 0.1 µM) 2.15% | viability, T/C (second compound 0.01 µM, first compound 0.316 µM) 2.12% | viability, T/C (second compound 0.01 µM, first compound 1 µM) 2.46% | viability, T/C (second compound 0.01 µM, first compound 3.16 µM) 1.41% | viability, T/C (second compound 0.01 µM, first compound 10 µM) 1.59% | viability, T/C (second compound 0.0316 µM, first compound 0.0316 µM) 1.57% | viability, T/C (second compound 0.0316 µM, first compound 0.1 µM) 1.69% | viability, T/C (second compound 0.0316 µM, first compound 0.316 µM) 1.39% | viability, T/C (second compound 0.0316 µM, first compound 1 µM) 1.53% | viability, T/C (second compound 0.0316 µM, first compound 3.16 µM) 1.35% | viability, T/C (second compound 0.0316 µM, first compound 10 µM) 1.61% | viability, T/C [4] 1.25% | viability, T/C [5] 1.35% | viability, T/C (second compound 0.1 µM, first compound 0.316 µM) 1.63% | viability, T/C (second compound 0.1 µM, first compound 1 µM) 1.07% | viability, T/C (second compound 0.1 µM, first compound 3.16 µM) 1.04% | viability, T/C (second compound 0.1 µM, first compound 10 µM) 1.01% | viability, T/C [6] 1.03% | viability, T/C [7] 1.15% | viability, T/C (second compound 0.316 µM, first compound 0.316 µM) 1.4% | viability, T/C (second compound 0.316 µM, first compound 1 µM) 1.07% | viability, T/C (second compound 0.316 µM, first compound 3.16 µM) 0.98% | viability, T/C (second compound 0.316 µM, first compound 10 µM) 0.83% | viability, T/C [8] 1.05% | viability, T/C [9] 1.48% | viability, T/C (second compound 1 µM, first compound 0.316 µM) 1.17% | viability, T/C (second compound 1 µM, first compound 1 µM) 0.97% | viability, T/C (second compound 1 µM, first compound 3.16 µM) 0.82% | viability, T/C (second compound 1 µM, first compound 10 µM) 0.96%
< 31.6 nM: IC50 (curve of first compound, second compound 0.01 µM) | IC50 (curve of first compound, second compound 0.0316 µM) | IC50 [1] | IC50 [2] | IC50 [3]

NC1CCC(NC2CC2c2ccccc2)CC1 (configuration not stated) + Cc1c(S(C)(=O)=O)c(-c2cc(F)cc(N3CCN(c4ccc(NS(=O)(=O)c5ccc(NC(CCN6CCC(C(=O)OCCCP(=O)(O)O)CC6)CSc6ccccc6)c(S(=O)(=O)C(F)(F)F)c5)cc4)CC3)c2)c(-c2ccc(Cl)cc2)n1C(C)C
> 100 nM: IC50 [1] | IC50 [2] | IC50 [3] | IC50 (curve of first compound, second compound 3.16 µM) | IC50 (curve of first compound, second compound 10 µM)
inactive: viability, T/C (second compound 0.1 µM, first compound 0.000316 µM) 102% | viability, T/C (second compound 0.1 µM, first compound 0.001 µM) 98.7% | viability, T/C (second compound 0.1 µM, first compound 0.00316 µM) 104% | viability, T/C (second compound 0.1 µM, first compound 0.01 µM) 99.1% | viability, T/C [4] 92.5% | viability, T/C [5] 103% | viability, T/C (second compound 0.316 µM, first compound 0.000316 µM) 104% | viability, T/C (second compound 0.316 µM, first compound 0.001 µM) 103% | viability, T/C (second compound 0.316 µM, first compound 0.00316 µM) 106% | viability, T/C (second compound 0.316 µM, first compound 0.01 µM) 104% | viability, T/C [6] 105% | viability, T/C [7] 103% | viability, T/C (second compound 1 µM, first compound 0.000316 µM) 96.1% | viability, T/C (second compound 1 µM, first compound 0.001 µM) 106% | viability, T/C (second compound 1 µM, first compound 0.00316 µM) 103% | viability, T/C (second compound 1 µM, first compound 0.01 µM) 108% | viability, T/C [8] 105% | viability, T/C [9] 102% | viability, T/C (second compound 3.16 µM, first compound 0.000316 µM) 93.3% | viability, T/C (second compound 3.16 µM, first compound 0.001 µM) 94.2% | viability, T/C (second compound 3.16 µM, first compound 0.00316 µM) 99.5% | viability, T/C (second compound 3.16 µM, first compound 0.01 µM) 90.8% | viability, T/C (second compound 3.16 µM, first compound 0.0316 µM) 93.2% | viability, T/C (second compound 3.16 µM, first compound 0.1 µM) 94.7% | viability, T/C (second compound 10 µM, first compound 0.000316 µM) 101% | viability, T/C (second compound 10 µM, first compound 0.001 µM) 100% | viability, T/C (second compound 10 µM, first compound 0.00316 µM) 101% | viability, T/C (second compound 10 µM, first compound 0.01 µM) 101% | viability, T/C (second compound 10 µM, first compound 0.0316 µM) 96.6% | viability, T/C (second compound 10 µM, first compound 0.1 µM) 94.1%

C=C(F)C(=O)N1CCN(c2nc(OCC3CCCN3C)nc3c2CCN(c2cccc4cccc(Cl)c24)C3)CC1CC#N (configuration not stated)
3510 nM and 3280 nM and 4780 nM: IC50 (curve of compound)
inactive: viability, T/C (compound 0.0316 µM) 101% (2×) and 104% | viability, T/C (compound 0.1 µM) 103% and 99.7% and 93.1% | viability, T/C (compound 0.316 µM) 103% and 98.3% and 110% | viability, T/C (compound 1 µM) 101% and 94.9% and 103% | viability, T/C (compound 3.16 µM) 54.9% and 51.6% and 77.3%
active: viability, T/C (compound 10 µM) 0.35% and 0.45% and 1.25%
